One compound from patent US7601717B2, “Pterin analogs” (BioMarin Pharmaceutical Inc., priority 2008, dated 2009) can be followed below.

Structures can show the parent of a compound that is named as a salt. Where two headings read alike, the source gives them in different places.

Data set [1] can be described thus: HPLC with ECD and fluorescence detection of biopterins in plasma of dosed monkeys. The conditions noted are these: plasma 2 hours post-administration, 2% MeOH mobile phase, FIG. 16. It is filed as in vivo, cynomolgus monkeys. As for the experimental part:
An HPLC method using Electrochemical Detection (ECD) and Fluorescence (FL) detection is advantageous as it allows for the measurement of each of the discrete biopterin compounds (BH4, BH2 and B) as well as analog, such as prodrug, forms (e.g., Val-BH4, Val-BH2, and Val-B).
The concentrations of different biopterins (BH4, BH2 and B) and Val-biopterins are determined by initially using reverse phase HPLC for separation, followed by ECD and FL detection. BH4 and Val-BH4 are measured using ECD in which BH4 and Val-BH4 are oxidized by electrode 1 to quinonoid dihydrobiopterin forms (qBH2 or Val-qBH2, respectively), a short-lived dihydrobiopterin intermediate, and then reduced back to BH4 or Val-BH4 at electrode 2. The detector then uses the current generated by this reduction reaction to determine the concentration of BH4 or Val-BH4, respectively. BH2, Val-BH2, B and Val-B are measured by fluorescence detection. […] This is desirable because BH2 is not fluorescently active or easily measured and must be converted to biopterin, which is easily measured using fluorescence. […] In one embodiment, the biopterin analogs, such as valine biopterin derivatives, are measured using a 10% MeOH-containing mobile phase whereas the biopterins are measured using a 2% MeOH-containing mobile phase.
The compound of Example 5 can be detected in buffer and by extraction using this assay. […]

The nature of data set [2]: Pharmacokinetics and bioavailability, single intravenous or oral doses, partial Latin square crossover. It is filed as in vivo, male cynomolgus monkeys. The conditions noted are these: for bioavailability: male, cynomolgus monkey, plasma, po; for Absolute Bioavailability of the BH4 Analog: dihydrochloride; for Val-BH4/(BH4 + BH2 + B), analog remaining in systemic circulation / Val-BH4/BH4, analog remaining in systemic circulation: determined from AUC0-t; for Val-BH4/total biopterin, analog remaining in systemic circulation: from AUC0-t, total biopterin adjusted to BH4 analog. As for the experimental part:
This study was to determine the pharmacokinetics and relative bioavailability of BH4 when given as parent BH4 or an analog of BH4 to male cynomolgus monkeys as single intravenous or oral doses in a partial Latin square crossover design.
Six, male, non-naïve cynomolgus monkeys were fasted overnight prior to dosing through approximately 4 hours postdose. Individual doses were calculated based on body weights recorded on each day of dose administration. Five experimental groups of monkeys were evaluated using a partial Latin square crossover design: Group 1-2 mg/kg BH4 by IV; Group 2-40 mg/kg BH4 by oral gavage; Group 3-2 mg/kg BH4 analog by IV; Group 4-5 mg/kg BH4 analog by oral gavage; Group 5-20 mg/kg BH4 analog by oral gavage. The doses of BH4 analog were prepared as mg/kg equivalents of BH4 (calculated using BH4 and BH4 analog 2HCl molecular weights). The partial Latin square crossover design was used to minimize dose sequence effect on interanimal variability for statistical purposes. The monkeys received their respective dose of BH4 intravenously (2 mL/kg, dissolved in 100 μM ascorbic acid and 5% mannitol in sterile water for injection, SWFI), Example 5 intravenously (2 mL/kg, dissolved in 100 μM ascorbic acid and 5% mannitol in citrate buffer, pH 3) or BH4 or Example 5 by oral gavage (4 mL/kg, dissolved in 100 μM ascorbic acid in SWFI). Prior to use, all intravenous dose formulations were filtered into the final dosing container using a 0.22-micron syringe filter (Millex GS or GV; Millipore).
For intravenous administration, blood (approximately 1 mL) was collected from each animal predose and at 0.083, 0.25, 0.5, 1, 2, 3, 4, 6, 8, 12, 18, and 24 hours postdose. For oral administration, blood (approximately 1 mL) was collected from each animal predose and at 0.25, 0.5, 1, 2, 3, 4, 6, 8, 12, 18, and 24 hours postdose. Blood was collected into tubes containing K2-EDTA anticoagulant, which was maintained in chilled condition, and centrifuged to obtain plasma. Centrifugation began within 30 minutes of collection. Three, 100-μL aliquots of each plasma sample were promptly transferred following centrifugation into individual tubes containing 0.1% (w/v) dithioerythritol (DTE) for storage. Once the plasma aliquot was added, each tube was vortexed briefly to mix then immediately placed on dry ice.

As a reminder, the bioavailability is the share of a dose that reaches the circulation, judged against a reference dose that is usually intravenous. For the compound `CC(C)[C@H](N)C(=O)O[C@@H](C)[C@H](O)[C@H]1CNc2nc(N)[nH]c(=O)c2N1` [Example 5, 2-Amino-3-methyl-butyric acid 2-(2-amino-4-oxo-3,4,5,6,7,8-hexahydro-pteridin-6-yl)-2-hydroxy-1-methyl-ethyl ester dihydrochloride], in data set [1], the “height of the BH4 peak compared with monkeys administered BH4” value is on record as “several fold higher”. The bioavailability is 36% in data set [2] (5 mg/kg, oral 5 mg/kg (BH4 equivalents), n=6, read-out: Absolute Bioavailability of the BH4 Analog); 33% in data set [2] (20 mg/kg, oral 20 mg/kg (BH4 equivalents), n=6, read-out: Absolute Bioavailability of the BH4 Analog); 33 to 36% in data set [2] (20 mg/kg, oral 5 and 20 mg/kg, read-out: absolute bioavailability of Val-BH4 present in plasma). The “Absolute Bioavailability of the BH4 Analog” value in data set [2] (oral 5 mg/kg (BH4 equivalents), n=6, 5 mg/kg) is reported as 36.2 (26.3) %; in data set [2] (oral 20 mg/kg (BH4 equivalents), n=6, 20 mg/kg) it was 33.2 (29.2) %. Moreover, the “absorption and distribution of the analog in plasma” value in data set [2] (oral 5 mg/kg, FIG. 10) was “absorbed quickly and was rapidly distributed by 4 hr”. The “Val-BH4/(BH4 + BH2 + B), analog remaining in systemic circulation” value in data set [2] (oral 5 mg/kg, n=6) is given as 36.4 (16.0) %; in data set [2] (oral 20 mg/kg, n=6) it was 51.6 (11.6) %. The “Val-BH4/BH4, analog remaining in systemic circulation” value was 56.3 (25.2) % in data set [2] (oral 5 mg/kg, n=6) and 81.0 (18.1) % in data set [2] (oral 20 mg/kg, n=6). Further, the “Val-BH4/total biopterin, analog remaining in systemic circulation” value is reported as 23.5 (5.6) % in data set [2] (oral 5 mg/kg, n=6) and 40.7 (11.1) % in data set [2] (oral 20 mg/kg, n=6). Also, the “percent of Val-BH4 remaining in systemic circulation” value in data set [2] (oral 5 and 20 mg/kg, based on total biopterin adjusted to Val-BH4) is recorded as “greater than 23.5±5.6%”.
